Measurements published in patent US20250170129A1, “SENOTHERAPEUTIC AGENTS AND ALPHA-KLOTHO POLYPEPTIDES” (Mayo Foundation for Medical Education and Researc, priority 2022, published 2025).

Legend:
[1] = tested on: activin A; assay: Activin A mRNA in kidney of old INK-ATTAC mice (qPCR); format: in vivo, mouse; conditions: 10 mg/kg i.p. (FIG. 3H)
Protocol: (§1) FIGS. 3A-3I. Genetic clearance of highly p16^Ink4a-expressing cells increases α-Klotho. Young (8-month-old) or old (27-29-month-old) INK-ATTAC male mice were treated with vehicle or AP20187 (n=3 young+vehicle; n=3 young+AP20187; n=7 old+vehicle; n=7 old+AP20187) to dimerize the FKBP-caspase-8 fusion protein expressed in highly p16^Ink4a-expressing cells to selectively eliminate […]. AP20187 (10 mg/kg) or vehicle was administered i.p. every 2 weeks for 6 weeks. FIG. 3A) Schematic view of treatments. FIG. 3B) Kidney α-Klotho mRNA was assayed by qPCR. One-way ANOVA, F=4.81, p=0.01, R^2=0.46; *p=0.03, **p<0.01. FIG. 3C) α-Klotho protein was assayed relative to GAPDH (Western blots in FIG. 13). One-way ANOVA: F=4.81, p=0.01, R^2=0.46; *p<0.05, ****p<0.0001. FIG. 3D) Mouse urine was collected 2 days after the last dose of AP20187. Urinary α-Klotho was assayed by ELISA and expressed as a function of creatinine. One-way ANOVA, F=61.53, p<0.00001, R^2=0.90; *p=0.04, ****p<0.0001. Choroid Plexus (FIG. 3E) α-Klotho protein was assayed by immunofluorescence. […]
(§2) Each cDNA sample was generated by reverse transcription using 1 μg RNA following the manufacturer's protocol (Thermo Fisher Scientific). […] Data were analysed by the ΔΔCt method.
(§3) Next, it was determined if removal of p16^Ink4a-expressing cells, many of which are senescent, increases α-Klotho in old mice. […]

[2] = tested on: α-Klotho; assay: Clearance of p16Ink4a-expressing cells / senolytics in old INK-ATTAC mice, α-Klotho in kidney, urine, brain; format: in vivo, mouse; conditions: 10 mg/kg i.p.
Protocol: AP20187 (10 mg/kg) or vehicle was administered i.p. every 2 weeks for 6 weeks. […] FIG. 3B) Kidney α-Klotho mRNA was assayed by qPCR. One-way ANOVA, F=4.81, p=0.01, R^2=0.46; *p=0.03, **p<0.01. FIG. 3C) α-Klotho protein was assayed relative to GAPDH (Western blots in FIG. 13). One-way ANOVA: F=4.81, p=0.01, R^2=0.46; *p<0.05, ****p<0.0001. FIG. 3D) Mouse urine was collected 2 days after the last dose of AP20187. Urinary α-Klotho was assayed by ELISA and expressed as a function of creatinine. One-way ANOVA, F=61.53, p<0.00001, R^2=0.90; *p=0.04, ****p<0.0001. Choroid Plexus (FIG. 3E) α-Klotho protein was assayed by immunofluorescence. One-way ANOVA, F=20.98, R^2=0.80, **p<0.01, ****p<0.0001. Hippocampal (FIG. 3F) and cerebellar (FIG. 3G) α-Klotho mRNA was assayed by qPCR. […] Means±SEM; one-way ANOVA and post hoc Tukey's tests; F=3.84, p=0.038, R^2=0.40; *p=0.04 in (FIG. 3F); *p=0.04, F=7.87, p<0.01, R^2=0.60; *p=0.03 in (FIG. 3G); F=10.85; p<0.001, R^2=0.64; *p=0.03, ***p<0.0001 in (FIG. 3H); F=5.49; p=0.01, R^2=0.49; *p<0.05, **p=0.01 in (FIG. 3I).
Old (25-26-month-old) INK-ATTAC male mice were treated with vehicle or AP20187 or D+Q (n=7). AP20187 or D+Q or vehicle was administered every 2 weeks for 6 weeks. Mouse urine was collected 5 days after the last dose of AP20187 or D+Q. Urinary α-Klotho was assayed by ELISA and expressed as a function of creatinine (FIG. 10A) or Cystatin C (FIG. 10B). One-way ANOVA, A: *p=0.038, **p=0.0066, B: *p=0.048, **p=0.0048.
INK-ATTAC mice were as described elsewhere (Baker et al., Nature, 479(7372):232-6 (2011)). Briefly, in INK-ATTAC mice, the ATTAC gene is driven by a senescence-related p16^Ink4a promoter fragment. The fusion protein product of the ATTAC “suicide” gene contains a mutated FKBP moiety that can be cross-linked by AP20187, thereby activating the ATTAC protein caspase-8 moieties, causing apoptosis. […]
Each cDNA sample was generated by reverse transcription using 1 μg RNA following the manufacturer's protocol (Thermo Fisher Scientific). […] Data were analysed by the ΔΔCt method. […]

[3] = tested on: IL-1α; assay: IL-1α mRNA in hippocampus of old INK-ATTAC mice (qPCR); format: in vivo, mouse; conditions: 10 mg/kg i.p. (FIG. 3I)
Protocol: as §1, §2, §3

[4] = tested on: α-Klotho; assay: Senolytics / AP20187 in young INK-ATTAC mice, kidney and urinary α-Klotho; format: in vivo, mouse; conditions: young (3-month-old) INK-ATTAC mice; Dasatinib (5 mg/kg) plus Quercetin (50 mg/kg) or AP20187 (10 mg/kg) (FIG. 12A)
Protocol: FIGS. 12A-12B. […] 3-month-old female INK-ATTAC mice were treated with vehicle, Dasatinib (5 mg/kg) plus Quercetin (50 mg/kg), or AP20187 (10 mg/kg). FIG. 12A) Kidneys were harvested and lysed to assay α-Klotho protein by Western blotting. FIG. 12B) Urinary α-Klotho in the same cohort was assayed by ELISA after a second and third treatment with senolytic agents and expressed as a function of creatinine.
α-Klotho was assayed by ELISA in 1:100 diluted mouse urine (IBL America, #27601). Human urine α-Klotho was assayed by ELISA (IBL America, #27998, RRID:AB_2750859). Urine α-Klotho measurements are expressed as a function of urine volume, creatinine (R&D Systems, #KGE005), and/or cystatin C (R&D Systems, #MSCTC0).
Tissue extracts were homogenized using a Bead Mill 24 homogenizer (Waltham) and lysed in NETN buffer (20 mM Tris-HCl, pH 8.0, 100 mM NaCl, 1 mM EDTA, 0.5% Nonidet P-40), 5 mM NaF, a protease inhibitor cocktail (Millipore Sigma), and 5 mM nicotinamide. After incubating 30 minutes at 4° C., samples were centrifuged at 15,000 rpm for 10 minutes at 4° C. Protein concentrations of the supernatants were determined by the Bradford protein assay (BioRad). Lysates were separated by SDS-PAGE and transferred by electrophoresis to PVDF membranes (Millipore Sigma). […]

[5] = tested on: α-Klotho; assay: Senolytics on non-senescent human astrocytes, α-Klotho Western blot and qPCR; format: cell-based; conditions: Dasatinib (200 nM) plus Quercetin (10 μM) or Fisetin (10 μM), 48 hours
Protocol: FIGS. 11A-11C. […] Non-senescent human astrocytes were treated with vehicle, Dasatinib (200 nM) plus Quercetin (10 μM), or Fisetin (10 μM) for 48 hours. FIG. 11A) α-Klotho was assayed by Western blotting with GAPDH as the loading control. FIG. 11B) α-Klotho mRNA was assayed by qPCR. FIG. 11C) Non-senescent human adipose progenitor cells were treated with Dasatinib (500 nM) plus Quercetin ([…]) or vehicle for 48 hours. α-Klotho mRNA was assayed by qPCR.

[6] = tested on: α-Klotho; assay: Senolytics in naturally-aged mice, α-Klotho in urine, kidney, brain; format: in vivo, mouse; conditions: naturally-aged male mice 28-29-month-old, oral, vs vehicle (FIG. 4A)
Protocol: Wild-type C57BL/6 mice were randomly assigned to D+Q, Fisetin (F), or vehicle treatments. Treatments were started at age 26-27 months for old animals, and for DIO mice after 7-8 months of high fat-feeding beginning at 4 months of age. Mice were treated every 20 days with D+Q, F, or vehicle by oral gavage for 3 consecutive days in each of 3 cycles over 2 months (9 doses in total).

[7] = tested on: α-Klotho; assay: Senolytics in mice transplanted with senescent preadipocytes, urinary α-Klotho; format: in vivo, mouse; conditions: young mice transplanted i.p. with senescent cells, treated after 3 months (FIG. 4C)
Protocol: FIGS. 4A-4D. Senolytics increase urinary and kidney α-Klotho in old or obese mice. FIG. 4A) Naturally-aged male mice (28-29-month-old, n=10 in each group) were treated with vehicle, Dasatinib plus Quercetin (D+Q), or Fisetin. Urinary α-Klotho was measured by ELISA and expressed as a function of creatinine. One-way ANOVA: F=6.39; p<0.0^5, R^2=0.30; *p=0.02, **p<0.01. FIG. 4B) DIO mice (male, 10-month-old, n=8) were treated with vehicle or D+Q and urinary α-Klotho was assayed by ELISA and expressed as a function of creatinine. Unpaired T test; **p<0.01. FIG. 4C) Six-month-old male mice (n=6 in each group) were transplanted i.p. with senescent preadipocytes. After 3 months, they were treated with vehicle, D+Q, or Fisetin. Urinary α-Klotho was assayed by ELISA and expressed as a function of creatinine. One-way ANOVA and post hoc Tukey's tests: Kruskal-Wallis statistic=10.19; *p=0.02, **p<0.01. FIG. 4D) Kidney α-Klotho protein was also assayed in the same transplanted mice by Western blotting. One-way ANOVA: F=24.24; p<0.001, R^2=0.83; ***p<0.001. […]
α-Klotho was assayed by ELISA in 1:100 diluted mouse urine (IBL America, #27601). […] Urine α-Klotho measurements are expressed as a function of urine volume, creatinine (R&D Systems, #KGE005), and/or cystatin C (R&D Systems, #MSCTC0).

[8] = tested on: α-Klotho; assay: Recombinant SASP factor treatment of non-senescent HBAs, α-Klotho qPCR; format: cell-based, human; conditions: non-senescent HBAs treated with recombinant protein (FIG. 1F)
Text: (§4) FIGS. 1A-1F. Senescent cell conditioned medium decreases α-Klotho; blocking particular SASP factors with neutralizing antibodies partially restores α-Klotho. FIGS. 1A-1C) Conditioned media (CM) collected from senescent or non-senescent (FIG. 1A) human primary kidney endothelial cells (HKEs; one-way ANOVA: F=19.10, p<0.0001, R^2=0.89; n=3; ****p<0.0001); (FIG. 1B) human umbilical vein endothelial cells (HUVECs; one-way ANOVA: F=3.02, p=0.02, R^2=0.58, n=3; *p=0.02, **p=0.01); or (FIG. 1C) human brain astrocytes (HBAs; one-way ANOVA: F=7.93, p=0.02, R^2=0.66; n=5; ***p<0.001, *p=0.03) were applied to non-senescent HKEs, HUVECs, or HBAs, respectively, with or without antibodies against PAI-1, CXCL1, IL-6, activin A, TNF-α, IL-1α, IL-1β, or IL-18 for 48 hours. α-Klotho mRNA was assayed by qPCR. Means SEM. FIGS. 1D-1F) Primary HKEs (FIG. 1D; n=4), HUVECs (FIG. 1E; n=4), or HBAs (FIG. 1F; n=4) were treated with recombinant activin A or IL-1α. α-Klotho was assayed by qPCR 24 hours after treatments. Means±SEM; unpaired T-tests; ***p<0.001, ****p<0.0001. […]
as §2

[9] = tested on: α-Klotho; assay: Recombinant SASP factor treatment of non-senescent HKEs, α-Klotho qPCR; format: cell-based, human; conditions: non-senescent HKEs treated with recombinant protein (FIG. 1D)
Text: as §4, §2

[10] = tested on: α-Klotho; assay: Recombinant SASP factor treatment of non-senescent HUVECs, α-Klotho qPCR; format: cell-based, human; conditions: non-senescent HUVECs treated with recombinant protein (FIG. 1E)
Text: as §4, §2

Q: How did the “activin A in kidneys (mRNA, qPCR)” value [1] turn out when `CC[C@H](C(=O)N1CCCC[C@H]1C(=O)O[C@H](CCc1ccc(OC)c(OC)c1)c1cccc(OCC(=O)NCC(CNC(=O)COc2cccc([C@@H](CCc3ccc(OC)c(OC)c3)OC(=O)[C@@H]3CCCCN3C(=O)[C@@H](CC)c3cc(OC)c(OC)c(OC)c3)c2)CN(C)C)c1)c1cc(OC)c(OC)c(OC)c1` [AP20187] was run?
A: decreased

Q: And the “urinary α-Klotho (ELISA, function of creatinine)” value ([2]; vs vehicle (FIG. 3D, FIG. 10))?
A: increased

Q: And the “Kidney α-Klotho (mRNA by qPCR, protein by Western blot)” value ([2]; vs vehicle (FIGS. 3B-C))?
A: increased

Q: What about the “Brain α-Klotho (choroid plexus protein IF; hippocampal and cerebellar mRNA)” value ([2]; vs vehicle (FIGS. 3E-G)) of the same molecule?
A: increased

Q: What about the “IL-1α in brains (hippocampus mRNA, qPCR)” value [3] of the same molecule?
A: decreased

Q: What about the “kidney α-Klotho (protein, Western blotting)” value [4] of the same molecule?
A: did not increase

Q: Which results are given for `O=c1c(O)c(-c2ccc(O)c(O)c2)oc2cc(O)ccc12` [F, Fisetin]?
A: α-Klotho (Western blotting, mRNA qPCR) [5]: did not increase; urine α-Klotho (ELISA, function of creatinine) [6]: increased; urinary α-Klotho (ELISA, function of creatinine) [7]: increased

B1: IL-1α: recombinant human IL-1α protein (R&D Systems, #00-LA-010) (protein, UniProt P01583 113-271, looked up)
Interleukin-1 alpha: SAPFSFLSNVKYNFMRIIKYEFILNDALNQSIIRANDQYLTAAALHNLDEAVKFDMGAYKSSKDDAKITVILRISKTQLYVTAQDEDQPVLLKEMPEIPKTITGSETNLLFFWETHGTKNYFTSVAHPNLFIATKQDYWVCLAGGPPSITDFQILENQA
Q: What does the source list for B1?
A: expression of α-Klotho (qPCR) [8]: decreased expression of α-Klotho; expression of α-Klotho (qPCR) [9]: decreased expression of α-Klotho; expression of α-Klotho (qPCR) [10]: decreased expression of α-Klotho

B2: recombinant activin A: recombinant human activin A (R&D Systems, #338-AC) (protein, UniProt P08476 311-426, looked up)
Inhibin beta A chain: GLECDGKVNICCKKQFFVSFKDIGWNDWIIAPSGYHANYCEGECPSHIAGTSGSSLSFHSTVINHYRMRGHSPFANLKSCCVPTKLRPMSMLYYDDGQNIIKKDIQNMIVEECGCS
Q: Which “expression of α-Klotho (qPCR)” value [8] does the source give for B2 here?
A: decreased expression of α-Klotho

Q: What about the “expression of α-Klotho (qPCR)” value [9] of the same molecule?
A: decreased expression of α-Klotho

Q: And the “expression of α-Klotho (qPCR)” value [10]?
A: decreased expression of α-Klotho
